Experimental data as given in PMC8157578 (Antioxidants, 2021).
“Also recorded” adds a separate entry of the source.

How the values were obtained:
[1] = Cyclic voltammetry of Fe(III) chelated by ligand; format: physicochemical; conditions: 100 mM PB pH 7.4, SCE reference, 2 mV/s; Fe(III) alone approximately −0.65 V
Procedure: CV was performed in 100 mM PB (pH 7.4) on a Princeton Applied Research (VersaSTAT3) potentiostat with a Pt wire as the counter electrode, a saturated calomel electrode (SCE) as the reference electrode, and a glassy carbon electrode (5 mm in diameter) as the working electrode. The scan rate was 2 mV/s.

HeLa cells [2] = test: Labile iron pool (LIP) determination with calcein-AM in iron-overloaded HeLa cells, flow cytometry; format: cell-based, human; conditions: 500 μM compound alone, no iron
plasmid pBR322 DNA = test: Plasmid DNA strand breakage induced by Fe(III)–citrate/ascorbate/H2O2, agarose gel electrophoresis; format: biochemical; conditions: for Protective effect against iron-mediated DNA damage through inhibiting •OH generation, in words: isolated DNA, Fe(III) and Fe(II) systems, Figures S9–S12
Procedure: Plasmid DNA agarose gel electrophoresis was employed to investigate protective effect of CAPE and its analogues against DNA strand breakage induced by an iron-mediated system. For experimental procedure details, please refer to the Supplementary Materials.
Figure 4 Protective effect of CAPE and its analogues against Fe(III)–citrate–ascorbate–H2O2-induced DNA damage. […] The reaction mixture contained 20 μM Fe(III)–citrate, 10 μM ascorbate, and 200 μM H2O2, as well as the indicated concentrations of CAPE and its analogues. The experiments were repeated three times, and only typical images are presented. […]
(§1) The experiments were conducted via incubation of plasmid pBR322 DNA (5 μg/mL) at 37 °C for
(§2) 30 min in Chelex-treated HEPES buffer (100 mM, pH 7.4) with the iron-containing systems, in the
absence or presence of the indicated concentrations of CAPE and its analogues. […]

HeLa cells [3] = test: Immunofluorescence analysis of intracellular γ-H2AX generation in iron-overloaded HeLa cells (with H2O2); format: cell-based, human; conditions: for Fluorescence intensity of γ-H2AX: Fe(II)-H2O2 alone 2.86±0.64; for Concentration that significantly inhibits cellular DNA damage induced by iron overload (with H2O2) / Inhibition of cellular DNA damage induced by iron overload (with H2O2), in words: γ-H2AX, HeLa; for Concentration that significantly inhibits cellular DNA damage induced by iron overload (with H2O2): pre-treatment
Procedure: The immortalized human cervical carcinoma HeLa cell line used in this study was obtained from the Cell Resource Center, Peking Union Medical College. The cell line was checked to be free of mycoplasma contamination by PCR and culture. Its species origin was confirmed with PCR. The identity of the cell line was authenticated with STR profiling (FBI, CODIS). HeLa cells were cultured in a DMEM medium (4 mM L-glutamine, 4500 mg/L glucose, and no sodium pyruvate) with 10% fetal bovine serum (FBS) and 1% penicillin–streptomycin at 37 °C under a 5% CO2 atmosphere.
HeLa cells (10^4/well) were loaded by incubation with 20 μM Fe(II) for 2 h at 37 °C. […] For a detailed experimental procedure, please refer to the Supplementary Materials and our previous report. The experiment was repeated three times. The observation of the fluorescence of γ-H2AX in HeLa cells was conducted with a confocal laser scanning microscope (CLSM) (Leica TCS SP). Thirty cells in each group were randomly selected in different microscopic fields for quantitative detection. In detail, each well was equally divided into nine fields and numbered sequentially from the top right corner. Four fields were randomly selected according to a random number table. Thirty cells were then randomly selected from these four fields. All images were analyzed blind regarding exposure parameters, which were coded by one person and read by another who was blinded to the code. The fluorescence intensity of the γ-H2AX signal on selected images was automatically analyzed using the Image-J software. The Statistical Product and Service Solutions (SPSS 21) program was employed to analyze the data through ANOVA. Significant difference from iron-overloaded group are marked with * p < 0.05, ** p < 0.01, and *** p < 0.001.
(§3) 2.1 Immunofluorescence analysis of intracellular γ-H2AX generation in Hela cells
(§4) Fixed cells were permeabilized with 0.25% Triton-X100 in PBS for 10 min and blocked in 10%
(§5) normal goat serum, 0.1% tween 20 in PBS for 1 hour. The cells were incubated with primary
(§6) monoclonal antibody, γ-H2AX (Ser139, 20E3, Rabbit, mAb #9718) (1:600) overnight at 4°C, and then
(§7) stained secondary antibodies, anti-rabbit Alexa-488 and anti-mouse (Cell Signaling Technology) for
(§8) 1 hour. After Hoechst 33342 (10 μg/mL) staining for 2 min, dishes were mounted in ProLong™ Gold
(§9) Antifade Mountant (Invitrogen™) and stored at 4°C in the dark before confocal laser-scanning by
(§10) Broadband Confocal Leica TCS SP5. The CLSM images were obtained with the following excitation
respectively. Cells were washed 3 times with PBS (200 μL/well) at intervals. […]

HeLa cells [4] = test: Labile iron pool (LIP) determination with calcein-AM in iron-overloaded HeLa cells, flow cytometry; format: cell-based, human; conditions: for Fluorescence intensity of calcein-AM (LIP level): 15 min, Fe(II) alone 0.63-0.64
Procedure: HeLa cells (10^6/mL) were loaded by incubation with 20 μM Fe(II) for 2 h at 37 °C. Subsequently, cells were collected by centrifugation (1000 rpm for 5 min) and incubated with 0.5 μM calcein-AM for 15 min at 37 °C in a D’hanks buffer of pH 7.4. Cells were then washed twice by D’hanks buffer (pH 7.4) and incubated with or without CAPE and its analogues. The fluorescence was monitored by both flow cytometry (BD FACS Caliber) and a CLSM (Leica TCS SP). The experiment was repeated three times.
Figure 3 Effect of CAPE and its analogues on the LIP level in iron-overloaded cells, as measured by flow cytometry (A–D). HeLa cells were pretreated with 20 μM Fe(II) for 2 h and then incubated with calcein-AM. After 15 min, cells were washed and incubated with or without CAPE and its analogues for 15 min. The fluorescence intensity of cells was measured by flow cytometry. Significant differences from the iron-overloaded group are marked with * p < 0.05, ** p < 0.01, and *** p < 0.001. The experiment was repeated three times.

[5] = Calcein fluorescence quenching by Fe(III)–citrate, competition by ligand; format: binding; conditions: 0.1 μM calcein, 100 μM Fe(III)–citrate, 100–500 μM compound
Procedure: In the presence of calcein, mixtures of CAPE and Fe(III)/Fe(II) with different concentrations in 20 mM HEPES (pH 7.4) were used for fluorescence detection (Ex: 488 nm; Em: 515 nm). Fluorescence spectra were recorded using a Cary Eclipse fluorescence spectrophotometer (Varian, Palo Alto, CA, USA).
Figure 7 Effect of CAPE and its analogues on the fluorescence intensity of calcein–Fe(III)–citrate. (A,B) the fluorescence quenching of calcein by Fe(III)–citrate diminished in a (CAPE/CA:Fe(III)) ratio-dependent manner. […] The reaction mixture contained 0.1 μM calcein, 100 μM Fe(III)–citrate, and indicated concentrations of CAPE or its analogues (100–500 μM). The experiments were repeated three times, and only typical spectra are presented.

[6] = 1-octanol/phosphate buffer partitioning, shake-flask method; format: physicochemical; conditions: 1-octanol / 100 mM phosphate buffer pH 7.4, shake-flask
[7] = ESR spin-trapping (DMPO) of •OH generated by Fe(III)–citrate–ascorbate–H2O2; format: biochemical; conditions: 100 μM Fe(III)–citrate, 100 μM ascorbate, 1 mM H2O2
Procedure: The basic system used in this study consisted of Fe(III)/Fe(II), ascorbate, H2O2, and the spin trapping agent DMPO (100 mM) in 20 mM HEPES (pH 7.4) with or without CAPE and its analogues.
The reaction mixture contained 100 μM Fe(III)–citrate, 100 μM ascorbate, and 1 mM H2O2, as well as the indicated concentrations of CAPE and its analogues. The experiments were repeated three times, and only typical spectra are presented.
spectrometer parameters were as follows: scan range, 100 G; field set, 3470 G; time constant, 200 ms;
scan time, 100 s; modulation amplitude, 1.0 G; modulation frequency, 100 kHz; receiver gain,

[8] = Dissolved oxygen consumption by ascorbic acid/Fe(III)–citrate; format: biochemical; conditions: 100 μM Fe(III)-citrate, 1 mM ascorbate, ratio 5:1
Procedure: as §3, §4, §5, §6, §7, §8, §9, §10
respectively. Cells were washed 3 times with PBS (200 μL/well) at intervals.
as §1, §2
absence or presence of the indicated concentrations of CAPE and its analogues.
2.3 Electron spin resonance (ESR) spin-trapping studies
ESR spectra were recorded at room temperature in a Bruker ESR 300 spectrometer. Typical […]
The consumption of O2 was measured by Orion 3 dissolved oxygen meter (Thermo Scientific, […]
Corona Needle current was 3000 nA. The size of data points was recorded in 4 M format. […]

[9] = 20 μM Fe(III)–citrate, 10 μM ascorbate, 200 μM H2O2

| SMILES | Reduction potential of Fe(III) chelated by compound [1] [V] | Fluorescence intensity of calcein-AM (LIP level) (HeLa cells [2]) | Protective effect against Fe(III)–citrate–ascorbate–H2O2-induced DNA damage, in words (plasmid pBR322 DNA; [9]) | Concentration range with the stated inhibition of Fe(III)-citrate-Vc-H2O2 induced DNA damage (plasmid pBR322 DNA; 20 μM Fe(III)–citrate, 10 μM ascorbate, 200 μM H2O2, CAPE significantly, CA slightly) [µM] | Fluorescence intensity of γ-H2AX (HeLa cells [3]; Fe(II)-H2O2 + 50 μM compound) | Fluorescence intensity of γ-H2AX (HeLa cells [3]; Fe(II)-H2O2 + 100 μM compound) | Fluorescence intensity of γ-H2AX (HeLa cells [3]; Fe(II)-H2O2 + 200 μM compound) | Fluorescence intensity of γ-H2AX (HeLa cells [3]; Fe(II)-H2O2 + 500 μM compound) | Concentration that significantly inhibits cellular DNA damage induced by iron overload (with H2O2) (HeLa cells [3]) [µM] | Fluorescence intensity of calcein-AM (LIP level) (HeLa cells [4]; 20 μM Fe(II) + 50 μM compound) | Fluorescence intensity of calcein-AM (LIP level) (HeLa cells [4]; 20 μM Fe(II) + 200 μM compound) | Fluorescence intensity of calcein-AM (LIP level) (HeLa cells [4]; 20 μM Fe(II) + 500 μM compound) | Concentration that significantly regenerates calcein fluorescence (decreases LIP level) (HeLa cells [4]; iron-overloaded HeLa cells) [µM] | Inhibition of calcein fluorescence quenching by Fe(III)–citrate, in words [5] | Protective effect against iron-mediated DNA damage through inhibiting •OH generation, in words (plasmid pBR322 DNA) | LogKow [6] | Inhibitory effect against Fe(III)-citrate-Vc-H2O2 induced •OH generation, in words [7] | Inhibition of cellular DNA damage induced by iron overload (with H2O2), in words (HeLa cells [3]) | Effect on calcein fluorescence (LIP level), in words (HeLa cells [4]; iron-overloaded HeLa cells, 50–500 μM) | Effect on O2 consumption induced by ascorbic acid/Fe(III)–citrate, in words [8] |
| --- | --- | --- | --- | --- | --- | --- | --- | --- | --- | --- | --- | --- | --- | --- | --- | --- | --- | --- | --- | --- |
| O=C(O)/C=C/c1ccc(O)c(O)c1 [CA, caffeic acid] | −0.76 | 1.00±0.02 Fold of Control | lower than CAPE; also recorded: slightly inhibited | 20 to 200 | 3.13±0.42 Fold of Control | 3.09±0.51 Fold of Control | 2.82±0.43 Fold of Control | 1.73±0.43 Fold of Control | 500 | 0.63±0.02 Fold of Control | 0.64±0.01 Fold of Control | 0.70±0.02 Fold of Control | 500 | weaker inhibition | – | – | – | – | – | – |
| CCOC(=O)/C=C/c1ccc(O)c(O)c1 [CAEE, caffeic acid ethyl ester] | −0.99 | – | – | – | – | – | – | – | 50 to 500 | – | – | – | 50 to 500 | – | weaker than CAPE | 1.51 ± 0.03 | – | – | – | – |
| COC(=O)/C=C/c1ccc(O)c(O)c1 [CAME, caffeic acid methyl ester] | −0.79 | – | – | – | – | – | – | – | 100 to 500 | – | – | – | 200 to 500 | – | weaker than CAPE | 1.27 ± 0.06 | – | – | – | – |
| CCOC(=O)/C=C/c1ccc(O)c(OC)c1 [EF, ethyl ferulate] | – | 0.99±0.01 Fold of Control | no significant protective effect | – | – | – | – | – | – | 0.65±0.03 Fold of Control | 0.62±0.02 Fold of Control | 0.61±0.02 Fold of Control | – | no inhibitory effects | – | 1.38 ± 0.02 | no inhibitory effect | no significant inhibition | no effect | no significant effects |
| c1cnc2c(c1)ccc1cccnc12 [OP, 1,10-phenanthroline, reference compound] | – | – | – | – | – | – | – | – | – | – | – | – | – | – | – | – | – | effective | – | – |
